The test system of data set [1] is B16 tumour cells. The data set can be described thus: Tumour challenge, B16 in C57BL/6 mice. The format is in vivo, mouse. As to conditions: immunised tumour bearing C57BL/6 mice. The protocol:
C57BL/6 were challenged with B16 tumour (parental non-transfected cell line). Four days later the C57BL/6 mice were immunised with Cyk8 8-26 cit peptide. Overall survival (A), tumour volume (B) at day 13 and tumour volume throughout the study (C), post tumour implant are shown for unimmunised control mice and mice immunised with Cyk8 8-26 cit peptide. Statistical differences between immunised and control mice were determined by Mantel-Cox test, p values are shown. The tumour volume medians and p values are shown as determined by Mann Whitney U test, n=10 in all group.
For tumour challenge experiments, mice were challenged with 1×10^5 B16 HHDII/iDP4 cells subcutaneously on the right flank […] before primary immunisation (unless stated otherwise) and then immunised as described above. Tumour growth was monitored at 3-4 days intervals and mice humanely euthanised once tumour reached ≥10 mm in diameter.
The effect of immunisation with Cyk8 8-26 cit on the growth of the mouse B16 melanoma cell line was assessed in C57BL/6. Mice were challenged with B16 tumour cells 3 days prior to immunisation with Cyk8 8-26 cit.

Data set [2] deals with HHDII/DP4 transgenic mice. Kind of data set: Ex vivo IFNγ ELISpot on splenocytes of peptide-immunised HHDII/DP4 mice. The format is in vivo, mouse. As to conditions: for IFNγ responses detected in immunised mice: 25 μg peptide s.c. with CpG/MPLA once a week for three weeks, ELISpot 7 days after third immunisation; for cross-reactivity of the response to the wt version: HHDII/DP4 mice immunised with cit peptide; for IFNγ response to citrullinated peptide compared to media only: screening, HHDII/DP4 mice, 25 μg peptide with CpG/MPLA weekly for three weeks; for T cell responses in HLA-DP4 transgenic mice / reactivity to the unmodified wildtype sequence: summary statement. The protocol:
The HHDII/HLA-DP4 transgenic strain of mouse as described in patent WO2013/017545 A1 (EMMA repository, France) and C57BL/6 mice (Charles River, UK) were used, aged between 8 and 12 weeks, and cared for by the staff at Nottingham Trent University. All work was carried out under a Home Office project licence. Peptides were dissolved in 10% dimethylformamide to 1 mg/mL and then emulsified (a series of dilutions) with the adjuvant CpG and MPLA 6 μg/mouse of each (Invivogen, UK). Peptides (25 μg/mouse) were injected subcutaneously at the base of the tail.
ELISpot assays were performed using murine IFNγ capture and detection reagents according to the manufacturer's instructions (Mabtech, Sweden). In brief, anti-IFNγ antibody was coated onto wells of a 96-well Immobilin-P plate. Synthetic peptides (at a variety of concentrations) and 5×10^5 per well splenocytes were added to the wells of the plate in triplicate. LPS at 5 μg/mL was used as a positive control. Peptide pulsed target cells were added where relevant at 5×10^4 per well in triplicate and plates incubated for 40 hours at 37° C. After incubation, captured IFNγ was detected by a biotinylated anti-IFNγ antibody and developed with a streptavidin alkaline phosphatase and chromogenic substrate. Lipopolysaccharide (LPS; 5 μg/mL) was used as a positive control. For blocking studies, anti-CD4 blocking antibody (RPA-T4) and anti-CD8 blocking antibody (2.43) from Bioxcell were used at 20 μg/mL. Spots were analysed and counted using an automated plate reader (Cellular Technologies Ltd).
HHDII/DP4 and C57BL/6 mice were immunised with human citrullinated peptides in combination with CpG/MPLA as an adjuvant. 25 μg of peptide was administered subcutaneously as a single immunisation given once a week for three weeks Mice were culled 7 days after the third immunisation, the immune response to each peptide was assessed by ex vivo IFNγ ELISpot (FIG. 2). We have previously shown that citrullinated peptides can induce responses in the transgenic DR4 mouse strain. Given that different mouse strains have different MHC repertoires, the transgenic strain HHDII/DP4 and non-transgenic C57BL/6 mice were used for screening.
To determine if the immune response to the Cyk8 peptides is specific to the citrullinated peptide and not the wild type (wt) version, HHDII/DP4 transgenic mice were immunised with Cyk8 101-120 cit, 133-151 cit, 217-236 cit, 371-388 cit, 381-399 cit or Cyk8 101 wt, 133-151 wt, 371-388 wt peptides. HHDII/DP4 mice received 25 μg peptide with CpG/MPLA subcutaneously once a week for three weeks. Mice were culled 7 days after the third immunisation, the immune response to each peptide was assessed by ex vivo ELISpot (FIGS. 3A and 3B).
To determine whether the response to Cyk8 8-26 cit, Cyk8 101-120 cit, Cyk8 133-151 cit, Cyk8 371-388 cit, Cyk8 381-399 cit is CD4 dependent HHDII/DP4 transgenic mice and C57BL/6 mice received 25 μg peptide subcutaneously in combination with CpG/MPLA as an adjuvant, once a week for three weeks (FIG. 6A HHDII/DP4, FIG. 6B C57BL/6). Mice were culled 7 days after the third immunisation, an ELISpot assay was performed in the presence of an anti CD4 or CD8 antibody. […]

The subject of data set [3] is splenocytes of immunised HHDII/DP4 mice. The data set can be described thus: Peptide titration (avidity of T cell response) by IFNγ ELISpot. The format is cell-based, mouse. As to conditions: peptide titration 0.001 to 10 μg/ml. As for the experimental part: Transgenic mouse strains expressing HHDII/DP4 and parental C57BL mice were used to screen for IFNγ responses to peptide (A and B respectively). Mice were immunised with peptide pools of up to 2-3 non-overlapping human Cyk8 citrullinated peptides over three weeks. Splenocytes were harvested 21 days after the initial dose was administered. Ex vivo responses to stimulation with human Cyk8 cit peptides was assessed by IFNγ ELISpot. Media only responses were used as a negative control. n≥3 symbol represents mean response for individual mice, line represents median value between mice. Statistical significance of peptide response was compared to media only responses for each pool and determined using ANOVA with Dunnett's post-hoc test * […], ** p<0.01, *** p<0.001, **** p<0.0001, only significant p values are shown. […]
ELISpot assays were performed using murine IFNγ capture and detection reagents according to the manufacturer's instructions (Mabtech, Sweden). […] After incubation, captured IFNγ was detected by a biotinylated anti-IFNγ antibody and developed with a streptavidin alkaline phosphatase and chromogenic substrate. […] Spots were analysed and counted using an automated plate reader (Cellular Technologies Ltd).
Significant IFNγ responses were detected to human Cyk8 citrullinated peptides in transgenic HHDII/DP4 mice (FIG. 2A) and C57BL/6 mice (FIG. 2B). […]

Setting [4] is: HHDII/DP4, blocking antibody 20 μg/mL.

Results on three molecules are retold here after patent US20250269000A1, “ANTI-TUMOUR RESPONSES TO CYTOKERATINS” (SCANCELL LIMITED, priority 2020, published 2025).

Where a SMILES comes first, the peptide text is derived from it. Where no end group is shown, it is not given here. [ ]: non-standard residue; d: D form. Cit = NC(=O)NCCC[C@H](N)C(=O)O

For the molecule `CC(C)[C@H](NC(=O)[C@H](CCCCN)NC(=O)[C@H](Cc1ccc(O)cc1)NC(=O)[C@H](CO)NC(=O)[C@@H](N)CCCCN)C(=O)N[C@@H](CO)C(=O)N[C@H](C(=O)N[C@@H](CO)C(=O)NCC(=O)N1CCC[C@H]1C(=O)N[C@@H](CCCNC(N)=O)C(=O)N[C@@H](C)C(=O)N[C@@H](Cc1ccccc1)C(=O)N[C@@H](CO)C(=O)N[C@@H](CO)C(=O)N[C@@H](CCCNC(N)=O)C(=O)N[C@@H](CO)C(=O)N[C@@H](Cc1ccc(O)cc1)C(=O)N[C@H](C(=O)O)[C@@H](C)O)[C@@H](C)O` [Cyk8 8-26 cit, KSYKVSTSGP-cit-AFSS-cit-SYT] (H-KSYKVSTSGP[Cit]AFSS[Cit]SYT-OH), the associated toxicity entry in data set [1] was “no associated toxicity”.

As to “LTDEINFL-cit-QLYEEEI-cit-ELQ (LTDEINFL[Cit]QLYEEEI[Cit]ELQ) [Cyk8 217-236 cit, Cyk8 217-236, citrullinated at positions 225 and 233]”, in data set [2], the “IFNγ responses detected in immunised mice” value is “Moderate to high”, the “cross-reactivity of the response to the wt version” value is recorded as “no cross-reactivity”, the “IFNγ response to citrullinated peptide compared to media only” value is “significant immune responses” and the “T cell responses in HLA-DP4 transgenic mice” value is “potent T cell responses”. For the same molecule, the “reactivity to the unmodified wildtype sequence” value in data set [2] is “minimal reactivity”. In data set [3] (unit not given), the “log EC50 (avidity of T cell response)” value was -5.0 to-5.9.

Consider “cit-SNMDNMFESYINNL-cit-cit-QL ([Cit]SNMDNMFESYINNL[Cit][Cit]QL) [Cyk8 133-151 cit, Cyk8 133-151, citrullinated at position 133, 148 and 149]”, for which, in data set [2], the “IFNγ responses detected in immunised mice” value is on record as “Moderate to high”, the “cross-reactivity of the response to the wt version” value was “no cross-reactivity”, the “IFNγ response to citrullinated peptide compared to media only” value is reported as “significant immune responses” and the “T cell responses in HLA-DP4 transgenic mice” value was “potent T cell responses”. Moreover, in data set [2], the “reactivity to the unmodified wildtype sequence” value is reported as “minimal reactivity”. For the same molecule, in data set [2] (setting [4]), the “IFNγ response in the presence of the CD8 antibody” value is on record as “not significantly reduced” and the “IFNγ response in the presence of the anti CD4 antibody” value is “not significantly reduced”. Besides, the “log EC50 (avidity of T cell response)” value in data set [3] is given as -6.0 to-6.5 M.
